Experimental data reported in US20220387602A1, “BIFUNCTIONAL DEGRADERS AND THEIR METHODS OF USE” (NOVARTIS AG, priority 2019, published 2022).

Experiments:
Format in all cases: cell-based
HEK293 and TMD8 cells = experiment: Proteomics experiment (TMT quantification mass spectrometry of protein abundance); conditions: 1 μM, 6 hours, FIG. 3E
Procedure: HEK293 and TMD8 cells were treated with 1 μM dasatinib, 1 μM compound 06, 1 μM compound 07 or DMSO and protein abundance was analyzed using TMT quantification mass spectrometry. Significant changes were assessed by limma, log 2 fold changes are shown on the x-axis and p-values on the y-axis. Proteins with kinase annotations in UniProt are shown as squares and kinases with a log2 fold change≤−0.6 and a p-value≤0.01 are labeled with the corresponding gene name.
HEK293 and TMD8 cells were treated for 6 hours with DMSO (3 replicates), 1 μM dasatinib (2 replicates), 1 μM compound 06 (3 replicates) and 1 μM compound 07 (3 replicates), respectively. TMT11plex-labeled peptides were generated with the PreOmics iST-NHS kit according to the manufacturer's protocol (PreOmics, Germany). […] The 24 fractions were analyzed with a 25 cm×75 μm ID, 1.6 μm C18 Aurora Series emitter column (IonOpticks, Australia) on an EASY-nLC 1200 system coupled to an Orbitrap™ Fusion Lumos mass spectrometer (Thermo Fisher Scientific, USA). […] The Proteome Discoverer™ 2.1 software and the SEQUEST algorithm was used for protein identification and relative quantification. Log2 fold changes of protein abundances and p-values were calculated in Python and R with the limma package (Ritchie M E et al. Limma powers differential expression analyses for RNA-sequencing and microarray studies. Nucleic Acids Res. 2015, 43(7):e47).

ABL2 = target: T1, ABL2 (Homo sapiens, UniProt P42684); experiment: GFP-ABL2 protein abundance flow cytometry assay in HEK293A; conditions: for ABL2 Amax: % protein remaining at the concentration of maximum degradation; for DC50: HEK293A GFP-ABL2 sensor cells, 24 h
T1 construct: expressed in transfected cells; host or cells: HEK293A (Invitrogen R70507), lentiviral transduction
T1 sequence (P42684 whole entry, looked up): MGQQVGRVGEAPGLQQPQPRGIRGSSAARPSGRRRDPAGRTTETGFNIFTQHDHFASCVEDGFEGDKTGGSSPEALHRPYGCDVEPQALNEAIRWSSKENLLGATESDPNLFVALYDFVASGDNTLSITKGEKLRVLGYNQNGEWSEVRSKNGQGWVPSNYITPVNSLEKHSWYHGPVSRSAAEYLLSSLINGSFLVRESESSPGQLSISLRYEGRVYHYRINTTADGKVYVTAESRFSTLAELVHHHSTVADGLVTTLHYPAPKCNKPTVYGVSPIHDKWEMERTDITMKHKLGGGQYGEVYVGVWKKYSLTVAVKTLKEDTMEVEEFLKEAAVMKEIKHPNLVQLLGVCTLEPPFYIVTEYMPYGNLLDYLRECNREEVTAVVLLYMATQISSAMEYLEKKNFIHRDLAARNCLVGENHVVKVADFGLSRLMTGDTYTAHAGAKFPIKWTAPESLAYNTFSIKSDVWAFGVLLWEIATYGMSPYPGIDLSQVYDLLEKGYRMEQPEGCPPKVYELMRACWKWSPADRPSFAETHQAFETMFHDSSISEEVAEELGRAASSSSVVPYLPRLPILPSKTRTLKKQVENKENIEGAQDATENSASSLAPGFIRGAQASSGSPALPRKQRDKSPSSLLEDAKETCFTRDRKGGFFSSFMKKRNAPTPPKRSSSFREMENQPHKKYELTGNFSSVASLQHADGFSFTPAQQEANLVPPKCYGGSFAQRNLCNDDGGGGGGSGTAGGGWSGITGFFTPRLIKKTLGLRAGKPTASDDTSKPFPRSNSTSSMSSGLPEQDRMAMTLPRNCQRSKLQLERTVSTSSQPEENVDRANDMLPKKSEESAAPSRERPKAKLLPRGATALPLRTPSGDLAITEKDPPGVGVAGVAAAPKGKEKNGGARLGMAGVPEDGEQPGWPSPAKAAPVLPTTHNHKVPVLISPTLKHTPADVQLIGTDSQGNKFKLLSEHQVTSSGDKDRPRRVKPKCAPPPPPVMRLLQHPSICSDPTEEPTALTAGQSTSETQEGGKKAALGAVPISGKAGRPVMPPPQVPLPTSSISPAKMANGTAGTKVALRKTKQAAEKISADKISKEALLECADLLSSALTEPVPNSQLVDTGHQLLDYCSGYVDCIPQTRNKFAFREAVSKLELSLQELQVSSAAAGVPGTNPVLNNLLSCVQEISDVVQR
Procedure: (§1) Degradation of BTK, CSK, ABL2, EPHA4 and YES1 was measured in HEK293A cells (Invitrogen R70507) expressing either BTK-GFP and RFP, CSK-GFP and mCherry, GFP-ABL2 and mCherry, EPHA4-GFP and mCherry, or YES1-GFP and mCherry from a stably integrated bicistronic BTK-GFP-iresRFP, CSK-GFP-CHYSEL-mCherry, GFP-ABL2-CHYSEL-mCherry, EPHA4-GFP-CHYSEL-mCherry, or YES1-GFP-CHYSEL-mCherry construct, respectively. Reduction of the GFP signal measured by flow cytometry served as readout for BTK, CSK, ABL2, EPHA4 and YES1 degradation after degrader treatment.
(§2) 293A BTK-GFP-Ires-RFP, CSK-GFP-CHYSEL-mCherry, GFP-ABL2-CHYSEL-mCherry, EPHA4-GFP-CHYSEL-mCherry, or YES1-GFP-CHYSEL-mCherry sensor cells were generated by lentiviral vector transduction using the pLenti6-BTK-GFP-Ires-RFP, pLenti6-mCherryCHYSEL-EGFP-ABL2, pLenti6-CSK-GFP-CHYSEL-mCherry, pLenti6-EPHA4-GFP-CHYSEL-mCherry or pLenti6-YES1-GFP-CHYSEL-mCherry sensor construct described before. Lentiviral particles were produced in HEK293FT cells (Invitrogen R70007) by co-transfection of 500 ng pLenti6-BTK-GFP-Ires-RFP or pLenti6-IKZF3-GFP-Ires-RFP, 500 ng delta8.71 and 200 ng pVSVG diluted in 100 μL OptiMEM serum free medium (Invitrogen #11058-021) that was mixed after 5 min preincubation with 3 μL of Lipofectamine2000 (Invitrogen #11668-019) in 97 μL OptiMEM serum free medium. The mix was incubated for another 20 min at RT and then added on 1 mL of a freshly prepared suspension of HEK293FT cells in a well of a 6-well plate (concentration 1.2×10^6 cells/mL). 1 day after transfection, the medium was replaced with 1.5 mL of complete growth medium (DMEM high Glucose+10% FCS+1% L-Glutamine+1% NEAA+1% NaPyr.). 48 h post transfection supernatant containing viral transducing particles was collected and frozen at −80° C.
(§3) 2 days before transduction with viral particles 1×10^5 HEK293A cells (Invitrogen R70507) were seeded in 2 mL growth medium in a well of a 6-well plate. Infection was performed with 90 μL of collected supernatant containing viral transducing particles in 1 mL medium including 8 µg/mL polybrene. 24 h post infection, stably transfected cells were selected with blasticidin at a concentration of 8 μg/mL referred to as stable HEK293A sensor cells.
(§4) Stable HEK293A sensor cells were maintained in complete growth medium (DMEM high Glucose+10% FCS+1% L-Glutamine+1% NEAA+1% NaPyr.) with passaging performed twice per week. […] GFP and RFP are read in the channels called FITC and PE, respectively.
(§5) Concentration response curves plotting relative reduction of the GFP signal (measured by flow cytometry) versus 10 compound concentrations (starting concentration 10 μM, 3 fold dilution steps) of the compounds allowed generation of DC50 values.

CSK = target: T2, CSK (Homo sapiens, UniProt P41240); experiment: CSK-GFP protein abundance flow cytometry assay in HEK293A; conditions: for CSK Amax: % protein remaining at the concentration of maximum degradation; for DC50: HEK293A CSK-GFP sensor cells, 24 h
T2 construct: EGFP (after a Leu that replaces the STOP codon); expressed in transfected cells; host or cells: HEK293A (Invitrogen R70507), lentiviral transduction
T2 sequence (P41240 whole entry): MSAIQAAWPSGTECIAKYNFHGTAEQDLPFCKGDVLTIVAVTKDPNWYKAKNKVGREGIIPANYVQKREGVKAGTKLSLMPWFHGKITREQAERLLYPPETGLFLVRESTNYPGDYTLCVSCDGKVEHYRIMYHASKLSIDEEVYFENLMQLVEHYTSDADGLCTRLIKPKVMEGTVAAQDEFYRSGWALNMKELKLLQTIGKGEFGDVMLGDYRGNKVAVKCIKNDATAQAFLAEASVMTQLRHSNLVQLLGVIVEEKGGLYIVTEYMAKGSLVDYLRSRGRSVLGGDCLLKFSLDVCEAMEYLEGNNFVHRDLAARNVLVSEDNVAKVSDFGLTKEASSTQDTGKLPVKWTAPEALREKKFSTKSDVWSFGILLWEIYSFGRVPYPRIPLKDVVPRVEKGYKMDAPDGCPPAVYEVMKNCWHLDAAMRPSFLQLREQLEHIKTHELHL
Procedure: as §1, §2, §3, §4, §5

COc1ccc(C(=O)N2CCC3(CCN(C(=O)CN4CCN(c5cc(Nc6ncc(C(=O)Nc7c(C)cccc7Cl)s6)nc(C)n5)CC4)CC3)CC2)cc1N1CCC(=O)NC1=O [compound 07, N-(2-chloro-6-methylphenyl)-2-((6-(4-(2-(9-(3-(2,4-dioxotetrahydropyrimidin-1(2H)-yl)-4-methoxybenzoyl)-3,9-diazaspiro[5.5]undecan-3-yl)-2-oxoethyl)piperazin-1-yl)-2-methylpyrimidin-4-yl)amino)thiazole-5-carboxamide]
degradation of bound kinase targets (proteomics) (HEK293 and TMD8 cells): able to degrade several of the targets to which they bind
ABL2 Amax (ABL2): 27%
DC50 (ABL2): 63 nM
CSK Amax (CSK): 1%
DC50 (CSK): 23 nM

COc1ccc(C(=O)N2CCC3(CCN(C(=O)CCCCCCCN4CCN(c5cc(Nc6ncc(C(=O)Nc7c(C)cccc7Cl)s6)nc(C)n5)CC4)CC3)CC2)cc1N1CCC(=O)NC1=O [compound 06, N-(2-chloro-6-methylphenyl)-2-((6-(4-(8-(9-(3-(2,4-dioxotetrahydropyrimidin-1(2H)-yl)-4-methoxybenzoyl)-3,9-diazaspiro[5.5]undecan-3-yl)-8-oxooctyl)piperazin-1-yl)-2-methylpyrimidin-4-yl)amino)thiazole-5-carboxamide]
degradation of bound kinase targets (proteomics) (HEK293 and TMD8 cells): able to degrade several of the targets to which they bind
ABL2 Amax (ABL2): 22%
DC50 (ABL2): 2 nM
CSK Amax (CSK): 4%
DC50 (CSK): 4 nM
